Reference: patent US8394788B2, “Phenylsulfoxyoxazole compound inhibitors of urea transporters” (The Regents of the University of California, priority 2006, dated 2013)

How the values were obtained:
RBCs from wild-type mice = experiment: Osmotic water permeability, RBCs from wild-type mice (stopped-flow); type: cell-based, mouse; conditions: 10° C., 250-mM sucrose gradient
Method: (§1) RBC urea and water permeabilities were assayed by stopped-flow light scattering using a Hi-Tech Sf-51 instrument (Wiltshire, UK). For measurement of urea permeability, dilutions of whole blood (human or mouse; see Example 1) in PBS (hematocrit: approximately 0.5%) were incubated with test compounds for 5 min and then subjected to a 250-mM inwardly directed gradient of urea. After an initial osmotic shrinking phase, the kinetics of increasing cell volume caused by urea influx were measured as the time-course of 90° scattered light intensity at 530 nm, with increasing cell volume resulting in reduced scattered light intensity. As a positive control, 0.7 mM phloretin was added to the RBC suspension prior to stopped-flow experiments. Measurements of water permeability were carried out similarly, with sucrose (cell-impermeant) used instead of urea to establish a 250-mM osmotic gradient. As a positive control, HgCl2 (0.3 mM) was added to the RBC suspension prior to stopped-flow measurements. Osmotic water permeability coefficients (Pf) were computed from light scattering data as described (van Hoek et al., J Biol. Chem. 267:18267-69 (1992)).
This example describes chemical knock-out of UT-B by UT-B inhibitors in RBCs and the effect on UT-B-facilitated water transport. […] Osmotic water permeability was measured by stopped-flow light scattering in RBCs from wild-type and AQP1-null mice as shown in FIG. 8A. […] AQP1-null RBCs had greater than 5-fold reduced Pf compared to wild-type RBCs.

UT-B [1] = biological target: T1, UT-B (Mus musculus, UniProt Q8VHL0); experiment: Osmotic water permeability, AQP1-null mouse RBCs (UT-B-facilitated water transport); type: cell-based; conditions: 10° C., 250-mM sucrose gradient
T1 construct: the indicator cells are red blood cells that endogenously express the UT-B urea transporter; endogenous in cells; host or cells: mouse red blood cells (CD1 background; wild-type for A4, AQP1-null for A10)
T1 sequence (Q8VHL0 1-384): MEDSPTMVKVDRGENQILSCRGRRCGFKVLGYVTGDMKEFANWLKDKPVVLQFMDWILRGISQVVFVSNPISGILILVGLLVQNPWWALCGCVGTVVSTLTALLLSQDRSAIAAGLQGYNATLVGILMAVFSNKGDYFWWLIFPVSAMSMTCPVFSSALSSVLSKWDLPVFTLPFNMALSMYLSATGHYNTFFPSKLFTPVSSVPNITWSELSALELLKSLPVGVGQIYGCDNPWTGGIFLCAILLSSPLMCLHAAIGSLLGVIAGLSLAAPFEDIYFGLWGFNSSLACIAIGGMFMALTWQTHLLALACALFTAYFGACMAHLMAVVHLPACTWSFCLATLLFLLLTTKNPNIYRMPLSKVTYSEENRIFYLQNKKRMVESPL
Method: as §1, with “Osmotic water permeability coefficients (Pf) were computed from light scattering data as described (van Hoek et al., J Biol. Chem. 267:18267-69 (1992)).” left out
This example describes chemical knock-out of UT-B by UT-B inhibitors in RBCs and the effect on UT-B-facilitated water transport. […] Osmotic water permeability was measured by stopped-flow light scattering in RBCs from wild-type and AQP1-null mice as shown in FIG. 8A. […]

UT-B [2] = biological target: T2, UT-B (Homo sapiens, UniProt Q13336); experiment: Stopped-flow light scattering, urea permeability of human RBCs; type: cell-based; parameters: a red blood cell (i.e., erythrocyte), which endogenously expresses the urea transporter UT-B; endogenous in cells; host or cells: human red blood cells (whole blood, single donor); conditions: for inhibition of urea transport, inhibitor only in urea-containing solution (sidedness): external exposure at time of stopped-flow, 0.1 μM ureainh-101, 0.2 μM ureainh-302; for reversibility of inhibition after washing RBCs: washed after 10 min incubation
T2 sequence (Q13336 1-389): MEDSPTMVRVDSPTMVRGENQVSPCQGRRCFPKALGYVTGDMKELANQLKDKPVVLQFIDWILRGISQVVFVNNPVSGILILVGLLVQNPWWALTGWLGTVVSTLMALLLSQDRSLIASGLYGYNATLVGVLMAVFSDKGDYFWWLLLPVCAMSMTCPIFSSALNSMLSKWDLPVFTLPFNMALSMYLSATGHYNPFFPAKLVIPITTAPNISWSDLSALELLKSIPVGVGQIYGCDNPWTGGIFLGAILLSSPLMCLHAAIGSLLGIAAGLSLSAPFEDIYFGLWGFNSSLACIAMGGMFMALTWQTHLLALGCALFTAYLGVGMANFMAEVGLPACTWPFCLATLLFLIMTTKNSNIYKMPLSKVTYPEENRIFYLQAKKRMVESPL
Method: as §1
After repeating the 96-well plate RBC lysis assay to confirm compound activity (see Example 2), bona fide urea transport inhibition was determined by stopped-flow light scattering from the kinetics of urea influx (RBC swelling) in response to an inwardly directed urea gradient. Rapid mixing of an RBC suspension with a hyperosmolar solution containing excess 250 mM urea produced rapid cell shrinking due to osmotic water efflux, followed by cell swelling as urea (and water) influx occurred.
To determine EC50 values for urea transport inhibition directly, RBC urea transport was measured by stopped-flow light scattering using a non-saturating concentration of extracellular urea (to avoid possible competition effects). EC50 for inhibition of RBC urea transport was determined independently by comparing stopped-flow light scattering curves to a model of cell shrinking-swelling.
For stopped-flow experiments, a 100-mM gradient of urea (for human RBCs) or N-methylurea (for mouse RBCs) was used to minimize competition effects (apparent urea and N-methylurea affinities at 23° C. are approximately 200 and approximately 100 mM, respectively) (Mayrand et al., J Gen Physiol. 81:221-37 (1983)). N-methylurea, with greater than 2-fold slower RBC permeability than urea, was used in mouse studies to better resolve overlapping water and urea transport kinetics. Dose-response data were also collected for human RBCs using a high concentration of 1 M urea to distinguish between competitive vs. non-competitive inhibitor binding.
The two coupled differential equations describing water efflux and solute influx in response to externally added urea or methylurea were numerically integrated using the forward Euler method (Δt=0.01 s) to reproduce the biphasic changes in cell volume observed experimentally. Computations that were performed using the smaller time step (Δt=0.001 s) gave similar results, confirming the adequacy of the 0.01 s time step. Water flux, Jv (in cm^3/s), across erythrocyte membranes is represented by the following equation: Jv=−Pf·S·vw·[(Ie−Ic(i))+(Ue−Uc(i))]; solute flux, Js (in mol/s), is represented by the following equation: Ps·S·(Ue−Uc(i)). Permeability coefficients (Pf and Ps) are expressed in units of cm/s, cell surface area (S) in cm^2, extracellular (e) and cellular (c) concentrations of impermeant (I) and urea/methylurea (U) solute in mol/cm^3, and vw is […]. Initial conditions were Ie=Ic(0)=2.9×10^−4 mol/cm^3, Ue=10^−4 mol/cm^3, and Uc(0)=0. […]

mouse UT-B = biological target: T3, mouse UT-B (Mus musculus, UniProt Q8VHL0); experiment: Stopped-flow light scattering, mouse RBCs (N-methylurea gradient); type: cell-based
T3 construct: the indicator cells are red blood cells that endogenously express the UT-B urea transporter; endogenous in cells; host or cells: mouse red blood cells (CD1 background; wild-type for A4, AQP1-null for A10)
T3 sequence (Q8VHL0 1-384): T1 sequence (Q8VHL0 1-384)
Method: as §1, with “(1992)). […]” for “(1992)).”

| SMILES | effect on water transport in RBCs from wild-type mice (RBCs from wild-type mice) | effect on water permeability in AQP1-null RBCs (UT-B [1]) | inhibition of urea transport, inhibitor only in urea-containing solution (sidedness) (UT-B [2]) | concentration dependence of inhibition of urea permeability by externally added inhibitor (UT-B [2]; externally added, 0.05-0.2 μM) | reversibility of inhibition after washing RBCs (UT-B [2]) | inhibitory potencies against mouse UT-B (mouse UT-B) | inhibition at 0.1 µM (UT-B [2]; 10 min pre-incubation, 0.1 μM ureainh-101, 0.4 μM ureainh-302, read-out: transport inhibition after pre-incubation) [%] |
| --- | --- | --- | --- | --- | --- | --- | --- |
| Cc1ccc(Nc2nnc(-c3ccc(C(N)=O)cc3)c3ccccc23)cc1 [ureainh-302] | little effect | further inhibited water permeability | sizable effect | concentration-dependent | fully reversible inhibition | good inhibitory potencies | – |
| NC(=O)CSc1oc(-c2ccccc2)nc1S(=O)(=O)c1ccc(Br)cc1 [ureainh-101, 2-(4-(4-bromophenylsulfonyl)-2-phenyloxazol-5-ylthio)acetamide] | little effect | further inhibited water permeability | did not inhibit urea transport | – | fully reversible inhibition | good inhibitory potencies | > 95 |
